Reference: patent US20250206732A1, “COMPOUNDS AND METHODS FOR THE TARGETED DEGRADATION OF KRAS” (Arvinas Operations, Inc., priority 2022, published 2025)

Target: T1, AsPC-1 HiBiT-KRASG12D (Homo sapiens, UniProt P01116, G12D)
T1 construct: insert the HiBiT tag onto the N-terminus of one or more of the endogenous KRAS alleles; endogenous in cells; host or cells: AsPC-1 (ATCC CRL-1682), CRISPR-Cas9 knock-in clone, one tagged allele
Experiment: HiBiT degradation assay (G12D), AsPC-1 HiBiT-KRASG12D cells
Format: cell-based
Conditions: 24 hours treatment; for Dmax: ASPC1, AsPC-1 HiBiT-KRASG12D cells, maximum degradation observed; for DC50: AsPC-1 HiBiT-KRASG12D cells, HiBiT luminescence
How it was run: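 Luminescence read-out of HiBiT-tagged endogenous KRASG12D in AsPC-1 cells after 24 h compound exposure at 37° C; lytic Nano-Glo HiBiT detection, 45 min at room temperature. A parallel alamar blue read (4 h) checked viability, normalized to DMSO-only controls.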

T1 sequence (P01116 1-188 isoform P01116-2 G12D): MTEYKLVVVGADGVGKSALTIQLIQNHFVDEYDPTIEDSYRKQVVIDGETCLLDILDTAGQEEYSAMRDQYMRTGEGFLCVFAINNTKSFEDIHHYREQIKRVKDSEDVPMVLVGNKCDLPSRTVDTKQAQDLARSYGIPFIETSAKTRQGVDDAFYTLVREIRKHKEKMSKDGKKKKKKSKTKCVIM

Structure (SMILES): CCc1cccc2cc(O)cc(-c3ncc4c(N5CC6CCC(C5)N6)nc(OCCN5CCC(CC6CN(c7cc([C@H](C(=O)N8C[C@H](O)C[C@H]8C(=O)N[C@@H](C)c8ccc(-c9scnc9C)cc8)C(C)C)on7)C6)CC5)nc4c3F)c12 [Compound 81, (2S,4R)-1-[(2R)-2-(3-{3-[(1-{2-[(4-{3,8-diazabicyclo[3.2.1]octan-3-yl}-7-(8-ethyl-3-hydroxynaphthalen-1-yl)-8-fluoropyrido[4,3-d]pyrimidin-2-yl)oxy]ethyl}piperidin-4-yl)methyl]azetidin-1-yl}-1,2-oxazol-5-yl)-3-methylbutanoyl]-4-hydroxy-N-[(1S)-1-[4-(4-methyl-1,3-thiazol-5-yl)phenyl]ethyl]pyrrolidine-2-carboxamide]
- Dmax: 80 to 100%
- DC50: < 600 nM

Structure (SMILES): CCc1cccc2cc(O)cc(-c3ncc4c(N5CC6CCC(C5)N6)nc(OC[C@@]56CCCN5[C@@H](COC(=O)N5CCN(c7cc([C@H](C(=O)N8C[C@H](O)C[C@H]8C(=O)N[C@@H](C)c8ccc(-c9scnc9C)cc8)C(C)C)on7)CC5)CC6)nc4c3F)c12 [Compound 106, [(3R,7aS)-7a-{[(4-{3,8-diazabicyclo[3.2.1]octan-3-yl}-7-(8-ethyl-3-hydroxynaphthalen-1-yl)-8-fluoropyrido[4,3-d]pyrimidin-2-yl)oxy]methyl}-hexahydro-1H-pyrrolizin-3-yl]methyl 4-{5-[(2R)-1-[(2S,4R)-4-hydroxy-2-{[(1S)-1-[4-(4-methyl-1,3-thiazol-5-yl)phenyl]ethyl]carbamoyl}pyrrolidin-1-yl]-3-methyl-1-oxobutan-2-yl]-1,2-oxazol-3-yl}piperazine-1-carboxylate]
- Dmax: 80 to 100%
- DC50: < 600 nM

Structure (SMILES): CCc1cccc2cccc(-c3ncc4c(N5CCCCCC5)nc(OC[C@@]56CCCN5[C@@H](COC(=O)N5CCN(c7cc([C@H](C(=O)N8C[C@H](O)C[C@H]8C(=O)N[C@@H](C)c8ccc(-c9scnc9C)cc8)C(C)C)on7)CC5)CC6)nc4c3F)c12 (relative stereo) [Compound 49]
- DC50: > 3000 nM

Structure (SMILES): CCc1cccc2cc(O)cc(-c3ncc4c(N5CC6CCC(C5)N6)nc(OCCN5CCC(CC6CN(c7cc([C@H](C(=O)N8C[C@H](O)C[C@H]8C(=O)N[C@@H](C)c8ccc(-c9ccnn9C)cc8)C(C)C)on7)C6)CC5)nc4c3F)c12 [Compound 212, (2S,4R)-1-[(2R)-2-(3-{3-[(1-{2-[(4-{3,8-diazabicyclo[3.2.1]octan-3-yl}-7-(8-ethyl-3-hydroxynaphthalen-1-yl)-8-fluoropyrido[4,3-d]pyrimidin-2-yl)oxy]ethyl}piperidin-4-yl)methyl]azetidin-1-yl}-1,2-oxazol-5-yl)-3-methylbutanoyl]-4-hydroxy-N-[(1S)-1-[4-(1-methyl-1H-pyrazol-5-yl)phenyl]ethyl]pyrrolidine-2-carboxamide]
- Dmax: 80 to 100%
- DC50: < 600 nM

Structure (SMILES): C#Cc1c(F)ccc2cc(O)cc(-c3ncc4c(N5CC6CCC(C5)N6)nc(OCCN5CCC6(CC5)CC(Oc5cc([C@H](C(=O)N7C[C@H](O)C[C@H]7C(=O)N[C@@H](C)c7ccc(-c8scnc8C)cc7)C(C)C)on5)C6)nc4c3F)c12 [Compound 161, (2S,4R)-1-[(2R)-2-{3-[(7-{2-[(4-{3,8-diazabicyclo[3.2.1]octan-3-yl}-7-(8-ethynyl-7-fluoro-3-hydroxynaphthalen-1-yl)-8-fluoropyrido[4,3-d]pyrimidin-2-yl)oxy]ethyl}-7-azaspiro[3.5]nonan-2-yl)oxy]-1,2-oxazol-5-yl}-3-methylbutanoyl]-4-hydroxy-N-[(1S)-1-[4-(4-methyl-1,3-thiazol-5-yl)phenyl]ethyl]pyrrolidine-2-carboxamide]
- Dmax: 80 to 100%
- DC50: < 600 nM
